# In patent US20260256777A1, “DEGRADANT COMPOUND IN A MEDICAMENT” (VISUS THERAPEUTICS, INC., priority 2020, published 2026):
# Legend:
# [1] = Forced degradation of combined brimonidine tartrate and carbachol APIs, LC-PDA analysis; assay type: physicochemical; conditions: 66 hours
# Procedure: Following the procedures shown in Table 9, the two APIs combined were stressed with moisture and heat (Sample A), 0.1 M HCl at room temperature (Sample B), 0.1 M NaOH at room temperature (Sample C), vehicle and heat (Sample D), 1 M HCl at room temperature (Sample E), and 1 M NaOH at room temperature (Sample F) for 66 hours. A drug product vehicle was stressed under heat for 66 hours as a control (Sample G). After the stress treatment was completed, all samples were removed from condition, allowed to cool to room temperatures, then neutralized where appropriate, and brought to a similar concentration level. The samples were capped and shaken until all the materials in each sample were dissolved. Then each sample solution was diluted in the HPLC method diluent used in Example 4, Table 6 and mixed well. For retention time verification purposes, a reference sample solution was also prepared using a carbachol/brimonidine six month accelerated stability sample (Table 8). The brimonidine tartrate analytical concentration for all of the degraded and the reference sample solutions was 0.1 mg/mL.
# All of the sample solutions prepared as described in Table 9 were analyzed per the HPLC-PDA method shown in Example 4, Table 6. […] The level of the impurity present in both base-stressed samples is about 0.02% relative to that of the brimonidine peak. The extracted UV spectra for the RRT 0.91 impurity from the carbachol/brimonidine formulation (6 month accelerated stability sample) and the two base-stressed samples are similar for each.
# The Phase I forced degradation study confirmed that the RRT 0.91 impurity was formed when the two APIs together were stressed under basic (either 0.1 M NaOH or 1 M NaOH) conditions and at room temperatures. To study temperature impact on the reaction, the two APIs, brimonidine tartrate and carbachol, were combined and stressed under both base and heat (45° C.) conditions simultaneously.
# Additionally, to further confirm that the presence of both APIs was needed for the formation of the RRT 0.91 peak, individual API samples were also stressed in the same way. […] After the stress treatment was completed, all samples (H-M) were removed from condition, allowed to cool to room temperatures, neutralized where appropriate, and brought to a similar concentration level. The samples were capped and shaken until all the materials in each flask were dissolved. Then each sample solution was diluted in the HPLC method diluent (Example 4, Table 6) and mixed well.
# All the base and heat-stressed sample solutions prepared as described in Table 10 were analyzed by LC-PDA analysis per the method shown in Example 4, Table 6. […] This further confirmed that the RRT 0.91 impurity was a reaction product of the two APIs.
# [2] = Forced degradation samples analysed by prototype HPLC method; assay type: physicochemical
# Procedure: A new prototype HPLC method has been developed to study early eluting peaks not well separated by the method described in Example 3, Table 3. The method better separates early eluting brimonidine-related impurities. All sample solutions from the Phase I and II stress studies were analyzed with the prototype method. […] This was consistent with the analysis results per the method described in Example 4, Table 6. Another unknown impurity, impurity B, was also observed in the chromatogram for the 0.1 M NaOH and heat-stressed combined API sample at RT 3.44 min with a level of ~0.05% relative to the brimonidine peak area. The extracted UV spectrum for impurity B is consistent with the UV Spectrum previously observed in stability samples.
compound,measurement,setting,value
"NC(=O)N1CCN=C1Nc1ccc2nccnc2c1Br [RRT 0.91 Impurity, 2-((5-bromoquinoxalin-6-yl)amino)-4,5-dihydro-1H-imidazole-1-carboxamide]",Relative % Peak Area for RRT 0.91 Impurity (Versus Peak Area of Brimonidine),"[1]; 0.1M NaOH, 45° C.",0.15%
same,Relative % Peak Area for RRT 0.91 Impurity (Versus Peak Area of Brimonidine),"[1]; 0.1M NaOH, room temperature",0.02%
same,Relative % Peak Area for RRT 0.91 Impurity (Versus Peak Area of Brimonidine),"[1]; 0.1M NaOH, room temperature, listed as RRT 0.91 impurity",about 0.02%
same,Relative % Peak Area for RRT 0.91 Impurity (Versus Peak Area of Brimonidine),"[1]; 1M NaOH, 45° C.",0.03%
same,Relative % Peak Area for RRT 0.91 Impurity (Versus Peak Area of Brimonidine),"[1]; 1M NaOH, room temperature",0.02%
same,Relative % Peak Area for RRT 0.91 Impurity (Versus Peak Area of Brimonidine),"[1]; 1M NaOH, room temperature, listed as RRT 0.91 impurity",about 0.02%
"NC(=O)NCCNC(=O)Nc1ccc2nccnc2c1Br [Impurity B, 1-(5-bromoquinoxalin-6-yl)-3-(2-ureidoethyl)urea]",impurity B level relative to the brimonidine peak area,[2]; 0.1 M NaOH and heat-stressed combined API sample,~ 0.05%
same,impurity B level,[2]; other base-stressed combined APIs,very low levels
